Results taken from US20250066341A1 (CHIESI FARMACEUTICI S.P.A., priority 2021, published 2025).
pIC50: −log10 of the molar value.

Biological target: T1, human recombinant LPA1 expressed in CHO cells (Homo sapiens, UniProt Q92633)
T1 construct: expressed in transfected cells; host or cells: CHO cells (CHO-hLPA1 cell line)
Assay: FLIPR calcium mobilization assay, LPA1 antagonism in CHO-hLPA1 cells
Type: cell-based
Conditions: inhibition of LPA EC80 Ca2+ response, 30 min pre-incubation, expressed as range of activity
Method in brief: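 CHO-hLPA1 cells loaded with 5 μM Cal-520 AM plus 2.5 mM probenecid, 30 min at 37 °C, then pre-incubated 30 min at 37 °C with antagonist (11-point CRC, 0.5% DMSO final) before LPA at EC80. Baseline-subtracted peak fluorescence normalised to % inhibition; pIC50 from four-parameter logistic fit.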

T1 sequence (Q92633 whole entry): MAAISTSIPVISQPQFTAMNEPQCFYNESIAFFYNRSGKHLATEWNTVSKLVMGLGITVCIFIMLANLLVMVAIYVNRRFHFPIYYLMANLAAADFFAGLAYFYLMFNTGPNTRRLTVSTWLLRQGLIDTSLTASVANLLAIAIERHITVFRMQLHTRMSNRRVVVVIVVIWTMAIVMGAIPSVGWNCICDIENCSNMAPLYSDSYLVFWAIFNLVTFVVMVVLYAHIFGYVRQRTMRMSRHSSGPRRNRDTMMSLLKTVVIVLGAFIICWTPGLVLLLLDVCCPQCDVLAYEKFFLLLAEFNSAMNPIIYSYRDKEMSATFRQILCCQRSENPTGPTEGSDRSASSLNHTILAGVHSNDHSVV

pIC50	SMILES
6.60 to 7.30	Cc1nc(-c2nnn(C)c2CNC(=O)OCc2cccnc2Cl)ccc1OC[C@H]1CCCC[C@@H]1C(=O)O [Compound 64, (1S,2S)-2-(((6-(5-(((((2-chloropyridin-3-yl)methoxy)carbonyl)amino)methyl)-1-methyl-1H-1,2,3-triazol-4-yl)-2-methylpyridin-3-yl)oxy)methyl)cyclohexane-1-carboxylic acid]
> 7.30	Cc1nc(-c2nnn(C)c2CNc2nccc(-c3cnccn3)n2)ccc1OC[C@H]1CCCC[C@@H]1C(=O)O [Compound 65, (1S,2S)-2-(((2-methyl-6-(1-methyl-5-(((4-(pyrazin-2-yl)pyrimidin-2-yl)amino)methyl)-1H-1,2,3-triazol-4-yl)pyridin-3-yl)oxy)methyl)cyclohexane-1-carboxylic acid]
> 7.30	Cc1nc(-c2nnn(C)c2CNc2nccc(OC(C)C)n2)ccc1OC[C@H]1CCCC[C@@H]1C(=O)O [Compound 66, (1S,2S)-2-(((6-(5-(((4-isopropoxypyrimidin-2-yl)amino)methyl)-1-methyl-1H-1,2,3-triazol-4-yl)-2-methylpyridin-3-yl)oxy)methyl)cyclohexane-1-carboxylic acid]
> 7.30	CCC[C@@H](C)OC(=O)Nc1c(-c2ccc(OC[C@H]3CCCC[C@@H]3C(=O)O)c(C)n2)nnn1C [Compound 68, (1S,2S)-2-(((2-methyl-6-(1-methyl-5-(((((R)-pentan-2-yl)oxy)carbonyl)amino)-1H-1,2,3-triazol-4-yl)pyridin-3-yl)oxy)methyl)cyclohexane-1-carboxylic acid]
> 7.30	Cc1nc(-c2nnn(C)c2NC(=O)O[C@H](C)c2ccccc2Cl)ccc1OC[C@H]1CCCC[C@@H]1C(=O)O [Compound 69]
> 7.30	CCC[C@@H](C)OC(=O)Nc1c(C)noc1-c1ccc(OC[C@H]2CCCC[C@@H]2C(=O)O)c(C)n1 [Compound 70]
> 7.30	Cc1nc(-c2nnn(C)c2Nc2cncc(OC(C)C)n2)ccc1OC[C@H]1CCCC[C@@H]1C(=O)O [Compound 71, (1S,2S)-2-(((6-(5-((6-isopropoxypyrazin-2-yl)amino)-1-methyl-1H-1,2,3-triazol-4-yl)-2-methylpyridin-3-yl)oxy)methyl)cyclohexane-1-carboxylic acid]
6.60 to 7.30	CCOc1cncc(Nc2c(-c3ccc(OC[C@H]4CCCC[C@@H]4C(=O)O)c(C)n3)nnn2C)n1 [Compound 72, (1S,2S)-2-(((6-(5-((6-ethoxypyrazin-2-yl)amino)-1-methyl-1H-1,2,3-triazol-4-y1)-2-methylpyridin-3-yl)oxy)methyl)cyclohexane-1-carboxylic acid]
6.60 to 7.30	Cc1nc(-c2nnn(C)c2CNc2cncc(OC(C)C)n2)ccc1OC[C@H]1CCCC[C@@H]1C(=O)O [Compound 73]
> 7.30	Cc1nc(-c2onc(C)c2COC(=O)N(C)C2CCCC2)ccc1OC[C@H]1CCCC[C@@H]1C(=O)O [Compound 74, (1S,2S)-2-(((6-(4-(((cyclopentyl(methyl)carbamoyl)oxy)methyl)-3-methylisoxazol-5-yl)-2-methylpyridin-3-yl)oxy)methyl)cyclohexane-1-carboxylic acid]
> 7.30	CCCN(C)C(=O)OCc1c(C)noc1-c1ccc(OC[C@H]2CCCC[C@@H]2C(=O)O)c(C)n1 [Compound 75, (1S,2S)-2-(((2-methyl-6-(3-methyl-4-(((methyl(propyl)carbamoyl)oxy)methyl)isoxazol-5-y1)pyridin-3-yl)oxy)methyl)cyclohexane-1-carboxylic acid]
6.60 to 7.30	CCCN(C)C(=O)OCc1c(-c2ccc(OC[C@H]3CCCC[C@@H]3C(=O)O)c(C)n2)nnn1C [Compound 76, (1S,2S)-2-(((2-methyl-6-(1-methyl-5-(((methyl(propyl)carbamoyl)oxy)methyl)-1H-1,2,3-triazol-4-yl)pyridin-3-yl)oxy)methyl)cyclohexane-1-carboxylic acid]
> 7.30	Cc1noc(-c2ccc(OCC3CCCCC3C(=O)O)cc2)c1NC(=O)O[C@H](C)c1ccccc1Cl (stereo partly drawn) [Compound 77, 2-((4-(4-((((R)-1-(2-chlorophenyl)ethoxy)carbonyl)amino)-3-methylisoxazol-5-yl)phenoxy)methyl)cyclohexane-1-carboxylic acid]
